In patent publication US10206398B2, “Five-membered C-N-attached aryl sulphide and aryl sulphoxide derivatives as pesticides” (BAYER CROPSCIENCE AKTIENGESELLSCHAFT, priority 2014, dated 2019):
Read-outs that look alike come from different tables or passages of the source.

Experiments:
[1] = log P determination by HPLC on reversed-phase columns (C 18), analogous to OECD Guideline 117; assay type: physicochemical; settings: for chromatographic logP: reversed-phase HPLC column (C 18); for logP[a]: method [a]; for logP[b]: method [b]
Outline: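 Reversed-phase C18 HPLC per OECD 117, two conditions: [a] pH 2.7, 0.1% formic acid water/acetonitrile, log P(HCOOH); [b] pH 7.8, 0.001 M ammonium hydrogencarbonate/acetonitrile, log P(neutral). Both use a 10–95% acetonitrile gradient; values are interpolated from retention times against C3–C16 unbranched alkan-2-ones.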

Boophilus microplus = Boophilus microplus - injection test; assay type: in vivo; settings: 20 μg/animal, injection into engorged adult female cattle ticks, assessed after 7 days
Experimental: 1. Boophilus microplus—Injection Test
Solvent: dimethyl sulphoxide
To produce a suitable preparation of active compound, 10 mg of active compound are mixed with 0.5 ml of solvent and the concentrate is diluted with solvent to the desired concentration.
1 μl of the active compound solution is injected into the abdomen of 5 engorged adult female cattle ticks (Boophilus microplus). The animals are transferred into dishes and kept in a climate-controlled room.
Efficacy is assessed after 7 days by laying of fertile eggs. Eggs which are not visibly fertile are stored in a climate-controlled cabinet until the larvae hatch after about 42 days. An efficacy of 100% means that none of the ticks has laid any fertile eggs; 0% means that all the eggs are fertile.

Meloidogyne incognita = Meloidogyne incognita - test; assay type: in vivo; settings: 20 ppm, lettuce, after 14 days
Experimental: 2. Meloidogyne incognita—Test Solvent: 125.0 parts by weight of acetone To produce a suitable preparation of active compound, 1 part by weight of active compound is mixed with the stated amount of solvent and the concentrate is diluted with water to the desired concentration. Vessels are filled with sand, active compound solution, an egg/larvae suspension of the southern root-knot nematode (Meloidogyne incognita) and lettuce seeds. The lettuce seeds germinate and the plants develop. The galls develop on the roots. After 14 days, the nematicidal efficacy in % is determined by the formation of galls. 100% means that no galls were found; 0% means that the number of galls on the treated plants corresponds to the untreated control.

Tetranychus urticae = Tetranychus urticae - spray test, OP-resistant (bean leaf discs, 6 days); assay type: in vivo; settings: after 6 days; for pest or weed control at 500 g/ha: Tetranychus urticae, foliar, 144 h, read-out: efficacy (spider mites killed)
Outline: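 Bean leaf discs carrying all stages of OP-resistant Tetranychus urticae were sprayed with compound formulated in acetone/DMF and diluted in water with 1000 ppm emulsifier. Mortality was scored after 6 days as % efficacy, where 100% means all mites were killed.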

[2] = pH 2.7, HPLC, acidic range, pH 2.7, 0.1% aqueous formic acid and acetonitrile, read-out: log P(HCOOH)
[3] = pH 2.7, method [a], read-out: logP[a]
[4] = pH 7.8, HPLC, neutral range, pH 7.8, 0.001 molar aqueous ammonium hydrogencarbonate and acetonitrile, read-out: log P(neutral)
[5] = pH 7.8, method [b], read-out: logP[b]

Row | SMILES | chromatographic logP [1, 2] | chromatographic logP [1, 3] | chromatographic logP [1, 4] | chromatographic logP [1, 5] | efficacy (laying of fertile eggs) (Boophilus microplus) [%] | nematicidal efficacy (formation of galls) (Meloidogyne incognita) [%] | pest or weed control at 500 g/ha (Tetranychus urticae; 500 g/ha) [%] | logP[a] [1] | logP[b] [1] | efficacy (spider mites killed) (Tetranychus urticae; 500 g/ha) [%] | efficacy (spider mites killed) (Tetranychus urticae; 100 g/ha) [%]
1 | Cc1cc(F)c(N2C(=O)CN(C(=O)NCC(F)(F)F)C2=O)cc1[S+]([O-])CC(F)(F)F (centres unmarked) [Ex. No. 36, 3-[2-Fluoro-4-methyl-5-(2,2,2-trifluoroethylsulphinyl)phenyl]-2,4-dioxo-N-(2,2,2-trifluoroethyl)imidazolidine-1-carboxamide] | 2.46 | 2.46 | 2.42 | 2.41 | 100 | 90 | 100 |  |  |  | 
2 | Cc1cc(Cl)c(N2C(=O)CN(C(=O)NC3CC3)C2=O)cc1[S+]([O-])CC(F)(F)F (centres unmarked) [compound 62] |  |  |  |  | 100 |  |  | 2.38 | 2.29 | 100 | 
3 | Cc1cc(F)c(N2C(=O)C(C)N(C(=O)NC(C)C)C2=O)cc1[S+]([O-])CC(F)(F)F (centres unmarked) [compound 29] |  |  |  |  | 100 |  |  | 2.77 | 2.73 | 100 | 
4 | CCNC(=O)N1CC(=O)N(c2cc(SCC(F)(F)F)c(C)cc2F)C1=O [compound 6] |  |  |  |  | 100 | 90 |  | 2.98 | 2.93 | 100 | 
5 | Cc1cc(F)c(N2C(=O)C(C)N(C(=O)NCC(F)(F)F)C2=O)cc1[S+]([O-])CC(F)(F)F (mixture of isomers) [compound 88] |  |  |  |  | 100 |  |  | 2.75 | 2.71 | 100 | 
6 | CCNC(=O)N1C(=O)N(c2cc([S+]([O-])CC(F)(F)F)c(C)cc2F)C(=O)C1C (centres unmarked) [Ex. No. 27, N-Ethyl-3-[2-fluoro-4-methyl-5-(2,2,2-trifluoroethylsulphinyl)phenyl]-5-methyl-2,4-dioxoimidazolidine-1-carboxamide] | 2.42 | 2.42 | 2.39 | 2.39 | 100 |  | 100 |  |  |  | 
7 | Cc1cc(F)c(N2C(=O)CN(C(=O)Nc3cccc(F)c3)C2=O)cc1SCC(F)(F)F [compound 42] |  |  |  |  | 100 | 90 |  | 3.90 | 3.94 | 100 | 
8 | Cc1cc(F)c(N2C(=O)CN(C(=O)NCc3ccccc3)C2=O)cc1[S+]([O-])CC(F)(F)F (centres unmarked) [compound 21] |  |  |  |  | 100 | 90 |  | 2.77 | 2.71 | 100 | 
9 | Cc1cc(C)c([S+]([O-])CC(F)(F)F)cc1N1C(=O)CN(C(=O)NC(C)C)C1=O (centres unmarked) [compound 23] |  |  |  |  | 100 | 100 |  | 2.52 | 2.45 |  | 
10 | Cc1cc(F)c(N2C(=O)CN(C(=O)NC(C)C)C2=O)cc1SCC(F)(F)F [Ex. No. 7] |  |  |  |  | 100 | 90 |  | 3.34 | 3.29 | 100 | 
11 | Cc1cc(F)c(N2C(=O)CN(C(=O)NCC(C)C)C2=O)cc1[S+]([O-])CC(F)(F)F (centres unmarked) [Ex. No. 15, 3-[2-Fluoro-4-methyl-5-(2,2,2-trifluoroethylsulphinyl)phenyl]-N-isobutyl-2,4-dioxoimidazolidine-1-carboxamide] | 2.72 | 2.72 | 2.66 | 2.66 | 100 |  | 100 |  |  |  | 
12 | Cc1cc(C)c([S+]([O-])CC(F)(F)F)cc1N1C(=O)CN(C(=O)Nc2ccc(F)cc2)C1=O (racemic) [compound 99] |  |  |  |  | 100 | 90 |  | 3.01 | 2.92 |  | 90
13 | Cc1cc(F)c(N2C(=O)CN(C(=O)NC3CC3)C2=O)cc1SCC(F)(F)F [Ex. No. 1, N-Cyclopropyl-3-[2-fluoro-4-methyl-5-(2,2,2-trifluoroethylsulphanyl)phenyl]-2,4-dioxoimidazolidine-1-carboxamide] | 3.07 | 3.07 | 2.98 | 2.98 | 100 | 90 | 100 |  |  |  | 
14 | Cc1cc(F)c(N2C(=O)C(C)N(C(=O)NC3CC3)C2=O)cc1[S+]([O-])CC(F)(F)F (centres unmarked) [compound 28] |  |  |  |  | 100 |  |  | 2.46 | 2.42 | 100 | 
15 | CCC(C)NC(=O)N1CC(=O)N(c2cc([S+]([O-])CC(F)(F)F)c(C)cc2F)C1=O (centres unmarked) [compound 47] |  |  |  |  | 100 | 100 |  | 2.70 | 2.65 | 100 | 
16 | Cc1cc(Cl)c(N2C(=O)CN(C(=O)NCC(F)(F)F)C2=O)cc1[S+]([O-])CC(F)(F)F (centres unmarked) [compound 63] |  |  |  |  | 100 |  |  | 2.66 | 2.58 | 100 | 
17 | CCNC(=O)N1CC(=O)N(c2cc([S+]([O-])CC(F)(F)F)c(C)cc2F)C1=O (centres unmarked) [compound 9] |  |  |  |  | 100 | 100 |  | 2.05 | 2.05 | 100 | 
18 | Cc1cc(F)c(N2C(=O)CN(C(=O)NCC3CCCO3)C2=O)cc1[S+]([O-])CC(F)(F)F (mixture of isomers) [compound 91] |  |  |  |  | 100 |  |  | 2.19 | 2.13 | 100 | 
19 | Cc1cc(F)c(N2C(=O)CN(C(=O)Nc3ccc(F)cc3)C2=O)cc1[S+]([O-])CC(F)(F)F (centres unmarked) [compound 41] |  |  |  |  | 100 |  |  | 2.92 | 2.86 | 100 | 
20 | Cc1cc(F)c(N2C(=O)CN(C(=O)NC(C)C)C2=O)cc1[S+]([O-])CC(F)(F)F (centres unmarked) [compound 10] |  |  |  |  | 100 | 100 |  | 2.40 | 2.38 | 100 | 
21 | Cc1cc(F)c(N2C(=O)CN(C(=O)NC(C)(C)C)C2=O)cc1[S+]([O-])CC(F)(F)F (racemic) [compound 68] |  |  |  |  | 100 | 90 |  | 2.84 | 2.75 | 100 | 
22 | Cc1cc(F)c(N2C(=O)C(C)N(C(=O)NCC(C)C)C2=O)cc1[S+]([O-])CC(F)(F)F (mixture of isomers) [compound 89] |  |  |  |  | 100 |  |  | 3.10 | 3.02 | 100 | 
